pEC50, pIC50: −log10 of the molar value.
Experiments:
[1] = target: T1, human recombinant 5-lipoxygenase (Homo sapiens, UniProt P09917); assay: 5-Lipoxygenase enzyme assay; type: biochemical; details: 70 μM arachidonic acid, pH 7.4, 10 minute incubation; read-out: IC50, inhibition of 5-Lipoxygenase
T1 construct: purchased Cayman 60402
T1 sequence (P09917 1-674): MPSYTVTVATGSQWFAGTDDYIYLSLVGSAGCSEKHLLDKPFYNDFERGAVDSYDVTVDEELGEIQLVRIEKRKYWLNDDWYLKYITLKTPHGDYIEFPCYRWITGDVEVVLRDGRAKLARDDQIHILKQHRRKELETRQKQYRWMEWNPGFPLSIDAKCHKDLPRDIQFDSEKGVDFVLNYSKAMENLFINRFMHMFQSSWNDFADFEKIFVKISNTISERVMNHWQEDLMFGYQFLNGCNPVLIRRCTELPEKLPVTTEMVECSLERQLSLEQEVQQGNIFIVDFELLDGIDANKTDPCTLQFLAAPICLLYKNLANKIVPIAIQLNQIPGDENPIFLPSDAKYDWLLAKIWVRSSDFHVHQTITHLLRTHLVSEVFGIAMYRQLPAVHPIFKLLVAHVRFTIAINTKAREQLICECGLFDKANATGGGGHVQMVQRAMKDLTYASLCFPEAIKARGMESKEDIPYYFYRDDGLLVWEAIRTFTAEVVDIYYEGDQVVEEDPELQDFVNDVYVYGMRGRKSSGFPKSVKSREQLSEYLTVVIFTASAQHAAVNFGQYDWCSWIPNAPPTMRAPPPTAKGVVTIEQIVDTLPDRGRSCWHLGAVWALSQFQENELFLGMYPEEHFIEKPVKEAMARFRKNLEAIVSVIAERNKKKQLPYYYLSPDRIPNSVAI
Source text: (§1) In vitro evaluation of the ability of a composition to inhibit the enzymes 5-lipoxygenase, 15-lipoxygenase, or 12/15 lipoxygenase as described in Walidge, N. B. et al Anal. Biochem., 231: 354-358 (1995) using a high throughput colorimetric method; as well as in vitro evaluation of inhibiting LTB4 is described in Examples.
This procedure was used for measuring the enzymatic activity of human recombinant 5-lipoxygenase using a colorimetric method based on the ferric oxidation of xylenol orange.
(§2) • 96 well flat bottom microfilter plates (VWR, Catalog #62402-933 9295) • Lipoxygenase screening assay buffer (Cayman, Catalog #760710) • Human recombinant 5-lipoxygenase (Cayman, Catalog #60402) • Arachidonic Acid (Sigma, Catalog #A3555) • Xylenol orange tetrasodium salt (Aldrich, Catalog #227854) • Iron (II) sulfate heptahydrate (Sigma, Catalog #F7002) • Sulfuric acid (95-98%) [18M]—Methanol Procedure
(§3) Human recombinant 5-lipoxygenase (Cayman Cat #60402) was used in this assay. The test compound and/or vehicle was added to 0.51-1 5-lipoxygenase in 50 mM Tris-HCl buffer, pH 7.4. The reaction was initiated by addition of 70 μM arachidonic acid in Tris-HCl buffer, pH 7.4, and terminated after a 10 minute incubation at room temperature by addition of FOX reagent (25 mM sulphuric acid, 100 μM xylenol orange, 100 μM iron (II) sulphate, methanol:water 9:1). The yellow color of acidified xylenol orange was converted to a blue color by the lipid hydroperoxide-mediated oxidation of Fe 2+ ions and the interaction of the resulting Fe 3+ ions with the dye. The complex was allowed to form during a 1 hour incubation at room temperature with shaking. Absorbance of the Fe 3+ complex was then measured at […] using a spectrophotometer.
(§4) Negative controls contained enzyme during the incubation step but substrate was not added until after the FOX reagent.
Compounds were screened at 5 concentrations in triplicate starting at 10 μM

[2] = system: release of the leukotriene LTB4 from MPRO cell line; assay: LTB4 assay (competitive ELISA); type: cell-based; details: Mus musculus; 1 μM calcium ionophore A23187, 1 hour; read-out: EC50, inhibition of LTB4 production
Source text: This procedure was used for measuring the release of the leukotriene LTB4 from a neutrophil cell line using a competitive ELISA technique.
• MPRO cell line (ATCC, Catalog #CRL-11422) • Calciumionophore (A23187) (Sigma, Catalog #C7522) • Nordihydroguaiaretic acid (NDGA) (BioMol, Catalog #E1101-0001) • Retinoic Acid (all-trans) (ATRA) (Sigma, Catalog #95152) • Sterile, tissue-culture treated 96-well plates (Corning, Catalog #3614) Materials for LTB4 ELISA • Precoated (Mouse Anti-Rabbit IgG) EIA 96 Well Strip Plates (Cayman, Catalog #400004) • Leukotriene B4 AChE Tracer (Cayman Catalog #420110) • Leukotriene B4 EIA Antiserum (Cayman Catalog #420112) • Ellman's Reagent (Cayman Catalog #400050) • EIA Buffer Concentrate (10×) (Cayman Catalog #400060) • Wash Buffer Concentrate (400×) (Cayman Catalog #400062) • Plastic plate covers (Cayman Catalog #400012) Procedure
A mouse promyelocytic cell line (MPRO) was used in this assay. These cells are committed immature neutrophils that can be differentiated into mature neutrophils by treatment with 10 μM all-trans retinoic acid for 72 hours
Following 72 hours of differentiation, cells were stimulated with 1 μM of a calcium ionophore (A23187) in the presence or absence of test compound or vehicle for 1 hour at 370 C. After this time, supernatant was removed from the cells and the LTB4 levels were determined following manufacturer's instructions, using a Leukotriene B4 EIA kit from Cayman (Cat #520111)
The negative controls were media samples from differentiated but unstimulated cells.
The compounds were screened at 5 concentrations in quadruplicate starting at 10 μM

[3] = target: T2, porcine leukocyte 12/15-lipoxygenase (Sus scrofa, UniProt P16469); assay: 12/15-Lipoxygenase enzyme assay; type: biochemical; details: 70 μM arachidonic acid, pH 7.4, 10 minute incubation; read-out: IC50, inhibition of 12/15-Lipoxygenase
T2 construct: purchased Cayman 60300
T2 sequence (P16469 1-663): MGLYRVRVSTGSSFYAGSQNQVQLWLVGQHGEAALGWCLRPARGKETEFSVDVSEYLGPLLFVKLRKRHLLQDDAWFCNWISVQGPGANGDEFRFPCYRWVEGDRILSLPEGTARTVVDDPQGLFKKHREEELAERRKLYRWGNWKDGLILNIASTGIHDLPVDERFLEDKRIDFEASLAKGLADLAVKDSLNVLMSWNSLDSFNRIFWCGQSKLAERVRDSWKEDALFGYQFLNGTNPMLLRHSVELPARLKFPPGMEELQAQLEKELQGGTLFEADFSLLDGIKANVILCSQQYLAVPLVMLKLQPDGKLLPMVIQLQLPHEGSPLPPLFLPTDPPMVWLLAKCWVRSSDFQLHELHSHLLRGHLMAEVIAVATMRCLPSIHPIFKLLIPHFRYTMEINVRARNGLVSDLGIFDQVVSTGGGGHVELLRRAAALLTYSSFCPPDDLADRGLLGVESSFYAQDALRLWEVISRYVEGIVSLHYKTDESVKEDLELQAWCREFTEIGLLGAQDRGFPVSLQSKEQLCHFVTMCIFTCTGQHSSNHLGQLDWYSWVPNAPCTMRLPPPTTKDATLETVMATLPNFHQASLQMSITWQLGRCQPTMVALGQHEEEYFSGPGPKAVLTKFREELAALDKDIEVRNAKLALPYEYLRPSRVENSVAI
Source text: as §1
This procedure was used for measuring the enzymatic activity of porcine leukocyte 12/15-lipoxygenase using a colorimetric method based on the ferric oxidation of xylenol orange.
as §2, with “Porcine leukocyte 12/15-lipoxygenase” for “Human recombinant 5-lipoxygenase”, “#60300)” for “#60402)”, “[18M] • Methanol” for “[18M]—Methanol”
as §3, with “Porcine Leukocyte 12/15-lipoxygenase” for “Human recombinant 5-lipoxygenase”, “#60300)” for “#60402)”, “Test” for “The test”, “1.3 U 12/15-lipoxygenase” for “0.51-1 5-lipoxygenase”
as §4
Compounds are screened at 5 concentrations in triplicate starting at 10 μM

Row | SMILES | pIC50 [1] | pEC50 [2] | pIC50 [3]
1 | Cc1cc(C2(C)CCc3cc(O)c(C)c(C)c3O2)c(C)s1 (centres unmarked) [2-(2,5-Dimethyl-thiophen-3-yl)-2,7,8-trimethyl-chroman-6-ol] | > 6.00 | > 6.00 | 
2 | Cc1c(C)c2c(c(C)c1O)CCC(C)(c1cccs1)O2 (centres unmarked) [2,5,7,8-Tetramethyl-2-thiophen-2-yl-chroman-6-ol] | > 6.00 | > 6.00 | > 6.00
3 | Cc1cc(C2(C)CCc3c(C)c(O)c(C)c(C)c3O2)c(C)s1 (centres unmarked) [2-(2,5-Dimethyl-thiophen-3-yl)-2,5,7,8-tetramethyl-chroman-6-ol] | > 6.00 | > 6.00 | > 6.00
4 | Cc1c(C)c2c(c(-c3ccco3)c1O)CCC(C)(C)O2 [5-Furan-2-yl-2,2,7,8-tetramethyl-chroman-6-ol] | > 6.00 | > 6.00 | > 6.00
